Experimental data from US11098032B2, “Pyran dervatives as CYP11A1 (cytochrome P450 monooxygenase 11A1) inhibitors” (ORION CORPORATION, priority 2016, dated 2021).

Target: T1, CYP11A1 (Homo sapiens, UniProt P05108)
T1 construct: human H295R adrenocortical carcinoma cell line was used as source of enzyme; endogenous in cells; host or cells: H295R human adrenocortical carcinoma cells
T1 sequence (P05108 40-521): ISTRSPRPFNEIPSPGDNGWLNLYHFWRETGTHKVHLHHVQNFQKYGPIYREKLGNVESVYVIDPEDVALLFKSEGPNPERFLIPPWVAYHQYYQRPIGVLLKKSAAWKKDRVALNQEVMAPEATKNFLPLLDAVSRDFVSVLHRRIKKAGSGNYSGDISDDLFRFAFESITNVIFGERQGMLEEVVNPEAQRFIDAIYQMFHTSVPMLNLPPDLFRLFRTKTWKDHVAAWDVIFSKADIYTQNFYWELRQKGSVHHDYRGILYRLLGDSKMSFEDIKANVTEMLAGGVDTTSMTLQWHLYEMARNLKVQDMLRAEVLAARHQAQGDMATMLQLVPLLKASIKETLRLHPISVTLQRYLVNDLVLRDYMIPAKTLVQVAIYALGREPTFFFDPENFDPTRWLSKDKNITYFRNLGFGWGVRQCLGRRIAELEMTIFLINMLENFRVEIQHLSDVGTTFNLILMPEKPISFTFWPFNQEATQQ
Test: CYP11A1 inhibition: modified isocaproic acid release assay (IARA) in H295R cells
Type: cell-based
Settings: human H295R adrenocortical carcinoma cells treated three days, 3 nM [24,25-3H]-labelled cholesterol, 1% DMSO, 10 concentrations in duplicates; read-out: IC50 of the test compounds on CYP11A1 inhibition
How it was run: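 H295R adrenocortical cells treated three days with test compounds at 10 concentrations in duplicate plus 3 nM [24,25-3H]-cholesterol, 1% DMSO final. Released radiolabelled isocaproic acid measured by scintillation counting after dextran-coated charcoal extraction; IC50 determined.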

Structure (SMILES): CN(C)S(=O)(=O)N1CCC(COc2coc(CN3Cc4ccc(F)cc4C3)cc2=O)CC1 [Compound 230, 4-(((6-((5-Fluoroisoindolin-2-yl)methyl)-4-oxo-4H-pyran-3-yl)oxy)methyl)-N,N-dimethylpiperidine-1-sulfonamide]
- IC50: < 150 nM

Structure (SMILES): O=C(N1CCC1)N1CCC(COc2coc(CN3Cc4ccccc4C3)cc2=O)CC1 [Compound 231, 5-((1-(Azetidine-1-carbonyl)piperidin-4-yl)methoxy)-2-(isoindolin-2-ylmethyl)-4H-pyran-4-one]
- IC50: 150 to 300 nM

Structure (SMILES): O=C(N1CCOCC1)N1CCC(COc2coc(CN3Cc4ccccc4C3)cc2=O)CC1 [Compound 232, 2-(Isoindolin-2-ylmethyl)-5-((1-(morpholine-4-carbonyl)piperidin-4-yl)methoxy)-4H-pyran-4-one]
- IC50: < 150 nM

Structure (SMILES): O=c1cc(CN2Cc3ccccc3C2)occ1OCc1ccc(S(=O)(=O)C2COC2)cc1 [Compound 233, 2-(Isoindolin-2-ylmethyl)-5-((4-(oxetan-3-ylsulfonyl)benzyl)oxy)-4H-pyran-4-one]
- IC50: 150 to 300 nM

Structure (SMILES): O=C(C1CCC(COc2coc(CN3Cc4ccccc4C3)cc2=O)CC1)N1CCC1 (stereo not shown) [Compound 234, 5-((4-(Azetidine-1-carbonyl)cyclohexyl)methoxy)-2-(isoindolin-2-ylmethyl)-4H-pyran-4-one]
- IC50: < 150 nM

Structure (SMILES): CS(=O)(=O)N1CCC(F)(COc2coc(CN3Cc4ccccc4C3)cc2=O)CC1 [Compound 235, 5-((4-Fluoro-1-(methylsulfonyl)piperidin-4-yl)methoxy)-2-(isoindolin-2-yl-methyl)-4H-pyran-4-one]
- IC50: 150 to 300 nM

Structure (SMILES): CC(C)S(=O)(=O)N1CCC(F)(COc2coc(CN3Cc4ccccc4C3)cc2=O)CC1 [Compound 236, 5-((4-Fluoro-1-(isopropylsulfonyl)piperidin-4-yl)methoxy)-2-(isoindolin-2-ylmethyl)-4H-pyran-4-one]
- IC50: 150 to 300 nM

Structure (SMILES): CS(=O)(=O)N1CCC(F)(COc2coc(CN3Cc4ccc(F)cc4C3)cc2=O)CC1 [Compound 237, 5-((4-Fluoro-1-(methylsulfonyl)piperidin-4-yl)methoxy)-2-((5-fluoroisoindolin-2-yl)methyl)-4H-pyran-4-one]
- IC50: 150 to 300 nM

Structure (SMILES): CS(=O)(=O)CC(=O)N1CCC(COc2coc(CN3Cc4ccccc4C3)cc2=O)CC1 [Compound 238, 2-(Isoindolin-2-ylmethyl)-5-((1-(2-(methylsulfonyl)acetyl)piperidin-4-yl)-methoxy)-4H-pyran-4-one]
- IC50: < 150 nM

Structure (SMILES): Cc1ccc(S(=O)(=O)N=S(C)(=O)C2CCC(COc3coc(CN4Cc5ccccc5C4)cc3=O)CC2)cc1 (stereo not shown) [Compound 239, N-{[4-({[6-(1,3-Dihydro-2H-isoindol-2-ylmethyl)-4-oxo-4H-pyran-3-yl]oxy}-methyl)cyclohexyl](methyl)oxido-λ^6-sulfanylidene}-4-methylbenzenesulfonamide]
- IC50: 150 to 300 nM

Structure (SMILES): CS(=N)(=O)C1CCC(COc2coc(CN3Cc4ccccc4C3)cc2=O)CC1 (stereo not shown) [Compound 240, 2-(Isoindolin-2-ylmethyl)-5-((4-(S-methylsulfonimidoyl)cyclohexyl)methoxy)-4H-pyran-4-one]
- IC50: 301 to 2000 nM

Structure (SMILES): CS(=O)(=O)N1CCC(COc2coc(CN3Cc4ccc(Cl)cc4C3)cc2=O)CC1 [Compound 241, 2-((5-Chloroisoindolin-2-yl)methyl)-5-((1-(methylsulfonyl)piperidin-4-yl)-methoxy)-4H-pyran-4-one]
- IC50: 150 to 300 nM

Structure (SMILES): N=S1(=O)CCC(COc2coc(CN3Cc4ccccc4C3)cc2=O)CC1 (stereo not shown) [Compound 242, 5-((1-Imino-1-oxidohexahydro-1λ^6-thiopyran-4-yl)methoxy)-2-(isoindolin-2-ylmethyl)-4H-pyran-4-one]
- IC50: 301 to 2000 nM

Structure (SMILES): CC(=O)N=S1(=O)CCC(COc2coc(CN3Cc4ccccc4C3)cc2=O)CC1 (stereo not shown) [Compound 243, N-(4-(((6-(Isoindolin-2-ylmethyl)-4-oxo-4H-pyran-3-yl)oxy)methyl)-1-oxido-tetrahydro-2H-1λ^6-thiopyran-1-ylidene)acetamide]
- IC50: 301 to 2000 nM

Structure (SMILES): CC(=O)[C@H]1CC[C@H](COc2coc(CN3Cc4ccccc4C3)cc2=O)CC1 [Compound 244, 5-(((1r,4r)-4-Acetylcyclohexyl)methoxy)-2-(isoindolin-2-ylmethyl)-4H-pyran-4-one]
- IC50: < 150 nM

Structure (SMILES): CCC(=O)N1CCC(COc2coc(CN3Cc4ccc(C(F)(F)F)cc4C3)cc2=O)CC1 [Compound 244a, 5-((1-Propionylpiperidin-4-yl)methoxy)-2-((5-(trifluoromethyl)isoindolin-2-yl)methyl)-4H-pyran-4-one]
- IC50: < 150 nM

Structure (SMILES): CS(=O)(=O)N1CCC(COc2coc(CN3Cc4ccc(F)c(F)c4C3)cc2=O)CC1 [Compound 245, 2-((4,5-Difluoroisoindolin-2-yl)methyl)-5-((1-(methylsulfonyl)piperidin-4-yl)methoxy)-4H-pyran-4-one]
- IC50: 301 to 2000 nM

Structure (SMILES): CS(=O)(=O)N1CCC(COc2coc(CN3Cc4ccc(C#N)cc4C3)cc2=O)CC1 [Compound 245a, 2-((5-((1-(methylsulfonyl)piperidin-4-yl)methoxy)-4-oxo-4H-pyran-2-yl)methyl)-isoindoline-5-carbonitrile]
- IC50: 301 to 2000 nM

Structure (SMILES): O=C(NC1CC1)N1CCC(COc2coc(CN3Cc4ccccc4C3)cc2=O)CC1 [Compound 247, N-Cyclopropyl-4-(((6-(isoindolin-2-ylmethyl)-4-oxo-4H-pyran-3-yl)oxy)-methyl)piperidine-1-carboxamide]
- IC50: 150 to 300 nM

Structure (SMILES): CC(C)(C)NC(=O)N1CCC(COc2coc(CN3Cc4ccccc4C3)cc2=O)CC1 [Compound 248, N-(tert-Butyl)-4-(((6-(isoindolin-2-ylmethyl)-4-oxo-4H-pyran-3-yl)oxy)-methyl)piperidine-1-carboxamide]
- IC50: 150 to 300 nM

Structure (SMILES): CC(C)CC(=O)C(=O)N1CCC(COc2coc(CN3Cc4ccccc4C3)cc2=O)CC1 [Compound 249, 1-(4-(((6-(Isoindolin-2-ylmethyl)-4-oxo-4H-pyran-3-yl)oxy)methyl)piperidin-1-yl)-4-methylpentane-1,2-dione]
- IC50: < 150 nM

Structure (SMILES): CNC(=S)N1CCC(COc2coc(CN3Cc4ccccc4C3)cc2=O)CC1 [Compound 250, 4-(((6-(Isoindolin-2-ylmethyl)-4-oxo-4H-pyran-3-yl)oxy)methyl)-N-methyl-piperidine-1-carbothioamide]
- IC50: 150 to 300 nM

Structure (SMILES): CC(C)(C)C(=O)N1CCC(COc2coc(CN3Cc4ccccc4C3)cc2=O)CC1 [Compound 251, 2-(Isoindolin-2-ylmethyl)-5-((1-pivaloylpiperidin-4-yl)methoxy)-4H-pyran-4-one]
- IC50: < 150 nM

Structure (SMILES): CC(=O)N1CCC(COc2coc(CN3Cc4ccccc4C3)cc2=O)CC1 [Compound 252, 5-((1-Acetylpiperidin-4-yl)methoxy)-2-(isoindolin-2-ylmethyl)-4H-pyran-4-one]
- IC50: 150 to 300 nM

Structure (SMILES): O=c1cc(CN2Cc3ccccc3C2)occ1OCC1CCN(S(=O)(=O)CC(F)(F)F)CC1 [Compound 253]
- IC50: 301 to 2000 nM

Structure (SMILES): N#CCS(=O)(=O)N1CCC(COc2coc(CN3Cc4ccccc4C3)cc2=O)CC1 [Compound 254, 2-((4-(((6-(Isoindolin-2-ylmethyl)-4-oxo-4H-pyran-3-yl)oxy)methyl)piperidin-1-yl)sulfonyl)acetonitrile]
- IC50: < 150 nM

Structure (SMILES): Cn1nccc1S(=O)(=O)N1CCC(COc2coc(CN3Cc4ccccc4C3)cc2=O)CC1 [Compound 255, 2-(Isoindolin-2-ylmethyl)-5-((1-((1-methyl-1H-pyrazol-5-yl)sulfonyl)piperidin-4-yl)methoxy)-4H-pyran-4-one]
- IC50: < 150 nM

Structure (SMILES): O=c1cc(CN2Cc3ccccc3C2)occ1OCC1CCN(S(=O)(=O)c2ccc(F)cc2)CC1 [Compound 256, 5-((1-((4-Fluorophenyl)sulfonyl)piperidin-4-yl)methoxy)-2-(isoindolin-2-yl-methyl)-4H-pyran-4-one]
- IC50: 150 to 300 nM

Structure (SMILES): CC(=O)OCC(=O)N1CCC(COc2coc(CN3Cc4ccccc4C3)cc2=O)CC1 [Compound 257, 2-(4-(((6-(Isoindolin-2-ylmethyl)-4-oxo-4H-pyran-3-yl)oxy)methyl)piperidin-1-yl)-2-oxoethyl acetate]
- IC50: < 150 nM

Structure (SMILES): C=CC(=O)N1CCC(COc2coc(CN3Cc4ccccc4C3)cc2=O)CC1 [Compound 258, 5-((1-Acryloylpiperidin-4-yl)methoxy)-2-(isoindolin-2-ylmethyl)-4H-pyran-4-one]
- IC50: 150 to 300 nM

Structure (SMILES): O=C(c1ccco1)N1CCC(COc2coc(CN3Cc4ccccc4C3)cc2=O)CC1 [Compound 260, 5-((1-(Furan-2-carbonyl)piperidin-4-yl)methoxy)-2-(isoindolin-2-ylmethyl)-4H-pyran-4-one]
- IC50: 150 to 300 nM

Structure (SMILES): CCC(=O)N1CCC(COc2coc(CN3Cc4ccccc4C3)cc2=O)CC1 [Compound 261, 2-(Isoindolin-2-ylmethyl)-5-((1-propionylpiperidin-4-yl)methoxy)-4H-pyran-4-one]
- IC50: < 150 nM

Structure (SMILES): COCCS(=O)(=O)N1CCC(COc2coc(CN3Cc4ccccc4C3)cc2=O)CC1 [Compound 262, 2-(Isoindolin-2-ylmethyl)-5-((1-((2-methoxyethyl)sulfonyl)piperidin-4-yl)-methoxy)-4H-pyran-4-one]
- IC50: < 150 nM

Structure (SMILES): Nc1cccc(COc2coc(CN3Cc4ccccc4C3)cc2=O)c1 [Compound 263, 5-((3-Aminobenzyl)oxy)-2-(isoindolin-2-ylmethyl)-4H-pyran-4-one]
- IC50: 301 to 2000 nM
